These results are taken from patent publication US10519152B2, “Compounds and their use in treating cancer” (AstraZeneca AB, priority 2017, dated 2019).

SMILES strings stand for the structures.

In the test the target is T1, Estrogen Receptor (ERα) in MCF-7 human ductal carcinoma breast cell line (Homo sapiens, UniProt P03372).
T1 construct: endogenous in cells; host or cells: MCF-7
T1 sequence (P03372 1-595): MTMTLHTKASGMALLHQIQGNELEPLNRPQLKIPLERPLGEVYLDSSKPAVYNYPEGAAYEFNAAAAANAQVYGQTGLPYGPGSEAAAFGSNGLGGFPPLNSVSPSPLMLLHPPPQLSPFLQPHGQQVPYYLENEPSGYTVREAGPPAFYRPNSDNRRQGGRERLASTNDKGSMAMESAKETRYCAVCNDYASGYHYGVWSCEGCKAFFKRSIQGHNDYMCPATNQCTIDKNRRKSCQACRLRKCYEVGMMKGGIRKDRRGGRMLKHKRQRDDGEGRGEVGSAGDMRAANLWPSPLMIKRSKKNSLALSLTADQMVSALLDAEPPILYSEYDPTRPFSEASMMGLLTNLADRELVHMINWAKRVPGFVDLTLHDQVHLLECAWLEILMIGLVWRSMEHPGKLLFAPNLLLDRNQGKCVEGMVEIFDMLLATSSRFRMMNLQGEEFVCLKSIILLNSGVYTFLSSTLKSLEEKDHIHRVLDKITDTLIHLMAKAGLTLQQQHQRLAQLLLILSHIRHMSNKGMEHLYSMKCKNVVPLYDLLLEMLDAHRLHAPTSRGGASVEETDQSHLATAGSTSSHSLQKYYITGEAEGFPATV
Kind of test: MCF-7 ER degradation assay (cell based immuno-fluorescence). The note with it: MCF-7 cells; for ER degradation ≥ 90% at 0.3 μM: ER degradation by fulvestrant at 0.3 μM is defined as 100%; for DC50: 18-22 hours incubation, 50% reduction of ERα expression, single experiment or average of two or more, read-out: MCF-7 ER degradation IC50. The essentials: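 MCF-7 human ductal carcinoma breast cells were seeded at 3.75×10^4 cells per mL (40 μL per well) in 384 well plates with phenol red free DMEM containing 2 mM L-Glutamine and 5% (v/v) Charcoal/Dextran treated foetal calf serum. After overnight culture, compounds were acoustically dispensed, incubated 18-22 hours, then cells were formaldehyde-fixed and immunostained for ERα.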

Consider `Cc1ncsc1-c1ccc(CNC(=O)[C@@H]2C[C@@H](O)CN2C(=O)[C@@H](NC(=O)COCCOCCCCCOc2cc(F)c([C@@H]3c4[nH]c5ccccc5c4C[C@@H](C)N3CC(F)(F)F)c(F)c2)C(C)(C)C)cc1` [Example 139, (2S,4R)-1-((S)-2-(2-(2-((5-(3,5-Difluoro-4-((1R,3R)-3-methyl-2-(2,2,2-trifluoroethyl)-2,3,4,9-tetrahydro-1H-pyrido[3,4-b]indol-1-yl)phenoxy)pentyl)oxy)ethoxy)acetamido)-3,3-dimethylbutanoyl)-4-hydroxy-N-(4-(4-methylthiazol-5-yl)benzyl)pyrrolidine-2-carboxamide], for which the “ER degradation ≥ 90% at 0.3 μM” value is recorded as “••” and the DC50 amounted to 1.1 nM.
With `Cc1ncsc1-c1ccc([C@H](C)NC(=O)[C@@H]2C[C@@H](O)CN2C(=O)[C@@H](NC(=O)COCCOCCCCCOc2cc(F)c([C@@H]3c4[nH]c5ccccc5c4C[C@@H](C)N3CC(F)(F)F)c(F)c2)C(C)(C)C)cc1` [Example 140, (2S,4R)-1-((S)-2-(2-(2-((5-(3,5-Difluoro-4-((1R,3R)-3-methyl-2-(2,2,2-trifluoroethyl)-2,3,4,9-tetrahydro-1H-pyrido[3,4-b]indol-1-yl)phenoxy)pentyl)oxy)ethoxy)acetamido)-3,3-dimethylbutanoyl)-4-hydroxy-N—((S)-1-(4-(4-methylthiazol-5-yl)phenyl)ethyl)pyrrolidine-2-carboxamide], the “ER degradation ≥ 90% at 0.3 μM” value is “••” and the DC50 worked out at 0.6 nM.
The corresponding values for `Cc1ncsc1-c1ccc(CNC(=O)[C@@H]2C[C@@H](O)CN2C(=O)[C@@H](NC(=O)CCCc2ccc(COc3cc(F)c([C@@H]4c5[nH]c6ccccc6c5C[C@@H](C)N4CC(C)(C)F)c(F)c3)nc2)C(C)(C)C)cc1` [Example 141, (2S,4R)-1-((S)-2-(4-(6-((3,5-Difluoro-4-((1R,3R)-2-(2-fluoro-2-methylpropyl)-3-methyl-2,3,4,9-tetrahydro-1H-pyrido[3,4-b]indol-1-yl)phenoxy)methyl)pyridin-3-yl)butanamido)-3,3-dimethylbutanoyl)-4-hydroxy-N-(4-(4-methylthiazol-5-yl)benzyl)pyrrolidine-2-carboxamide] are “•” and 0.9 nM.
The corresponding values for `Cc1ncsc1-c1ccc(CNC(=O)[C@@H]2C[C@@H](O)CN2C(=O)[C@@H](NC(=O)COCCCCC(=O)NCCOc2cc(F)c([C@@H]3c4[nH]c5ccccc5c4C[C@@H](C)N3CC(C)(C)F)c(F)c2)C(C)(C)C)cc1` [Example 142, (2S,4R)-1-((S)-2-(2-((5-((2-(3,5-Difluoro-4-((1R,3R)-2-(2-fluoro-2-methylpropyl)-3-methyl-2,3,4,9-tetrahydro-1H-pyrido[3,4-b]indol-1-yl)phenoxy)ethyl)amino)-5-oxopentyl)oxy)acetamido)-3,3-dimethylbutanoyl)-4-hydroxy-N-(4-(4-methylthiazol-5-yl)benzyl)pyrrolidine-2-carboxamide] are “••” and 0.2 nM.
With `Cc1ncsc1-c1ccc(CNC(=O)[C@@H]2C[C@@H](O)CN2C(=O)[C@@H](NC(=O)COCCCCC(=O)N(C)CCOc2cc(F)c([C@@H]3c4[nH]c5ccccc5c4C[C@@H](C)N3CC(C)(C)F)c(F)c2)C(C)(C)C)cc1` [Example 143, (2S,4R)-1-((S)-2-(2-((5-((2-(3,5-Difluoro-4-((1R,3R)-2-(2-fluoro-2-methylpropyl)-3-methyl-2,3,4,9-tetrahydro-1H-pyrido[3,4-b]indol-1-yl)phenoxy)ethyl)(methyl)amino)-5-oxopentyl)oxy)acetamido)-3,3-dimethylbutanoyl)-4-hydroxy-N-(4-(4-methylthiazol-5-yl)benzyl)pyrrolidine-2-carboxamide], the “ER degradation ≥ 90% at 0.3 μM” value was “••” and the DC50 turned out to be 0.2 nM.
Turning to `Cc1ncsc1-c1ccc(CNC(=O)[C@@H]2C[C@@H](O)CN2C(=O)[C@@H](NC(=O)COCc2ccc(C(=O)Nc3cc(F)c([C@@H]4c5[nH]c6ccccc6c5C[C@@H](C)N4CC(C)(C)F)c(F)c3)nc2)C(C)(C)C)cc1` [Example 144, N-(3,5-Difluoro-4-((1R,3R)-2-(2-fluoro-2-methylpropyl)-3-methyl-2,3,4,9-tetrahydro-1H-pyrido[3,4-b]indol-1-yl)phenyl)-5-((2-(((S)-1-((2S,4R)-4-hydroxy-2-((4-(4-methylthiazol-5-yl)benzyl)carbamoyl)pyrrolidin-1-yl)-3,3-dimethyl-1-oxobutan-2-yl)amino)-2-oxoethoxy)methyl)picolinamide], the “ER degradation ≥ 90% at 0.3 μM” value was “••” and the DC50 turned out to be 0.5 nM.
For `Cc1ncsc1-c1ccc(CNC(=O)[C@@H]2C[C@@H](O)CN2C(=O)[C@@H](NC(=O)CNCc2ccc(COc3cc(F)c([C@@H]4c5[nH]c6ccccc6c5C[C@@H](C)N4CC(C)(C)F)c(F)c3)nc2)C(C)(C)C)cc1` [Example 146] the same measures were “•” and 0.6 nM.
For `Cc1ncsc1-c1ccc(CNC(=O)[C@@H]2C[C@@H](O)CN2C(=O)[C@@H](NC(=O)CNCCCCCCCCOc2cc(F)c([C@@H]3c4[nH]c5ccccc5c4C[C@@H](C)N3CC(C)(C)F)c(F)c2)C(C)(C)C)cc1` [Example 147, (2S,4R)-1-((S)-2-(2-((8-(3,5-Difluoro-4-((1R,3R)-2-(2-fluoro-2-methylpropyl)-3-methyl-2,3,4,9-tetrahydro-1H-pyrido[3,4-b]indol-1-yl)phenoxy)octyl)amino)acetamido)-3,3-dimethylbutanoyl)-4-hydroxy-N-(4-(4-methylthiazol-5-yl)benzyl)pyrrolidine-2-carboxamide] the same measures were “•” and 5.8 nM.
The corresponding values for `Cc1ncsc1-c1ccc([C@H](C)NC(=O)[C@@H]2C[C@@H](O)CN2C(=O)[C@@H](NC(=O)COCCCOCCCOc2cc(F)c([C@@H]3c4[nH]c5ccccc5c4C[C@@H](C)N3CC(C)(C)F)c(F)c2)C(C)(C)C)cc1` [Example 152, (2S,4R)-1-((S)-2-(2-(3-(3-(3,5-Difluoro-4-((1R,3R)-2-(2-fluoro-2-methylpropyl)-3-methyl-2,3,4,9-tetrahydro-1H-pyrido[3,4-b]indol-1-yl)phenoxy)propoxy)propoxy)acetamido)-3,3-dimethylbutanoyl)-4-hydroxy-N—((S)-1-(4-(4-methylthiazol-5-yl)phenyl)ethyl)pyrrolidine-2-carboxamide] are “••” and 0.8 nM.
For `Cc1ncsc1-c1ccc([C@H](C)NC(=O)[C@@H]2C[C@@H](O)CN2C(=O)[C@@H](NC(=O)COCCOCCCCOc2cc(F)c([C@@H]3c4[nH]c5ccccc5c4C[C@@H](C)N3CC(C)(C)F)c(F)c2)C(C)(C)C)cc1` [Example 153, (2S,4R)-1-((S)-2-(2-(2-(4-(3,5-Difluoro-4-((1R,3R)-2-(2-fluoro-2-methylpropyl)-3-methyl-2,3,4,9-tetrahydro-1H-pyrido[3,4-b]indol-1-yl)phenoxy)butoxy)ethoxy)acetamido)-3,3-dimethylbutanoyl)-4-hydroxy-N—((S)-1-(4-(4-methylthiazol-5-yl)phenyl)ethyl)pyrrolidine-2-carboxamide], the “ER degradation ≥ 90% at 0.3 μM” value is reported as “••” and the DC50 came to 0.4 nM.
